How the values were obtained:
P. granulosum = experiment: Agar dilution MIC assay, panel of propionibacterium strains; type: cell-based, Propionibacterium granulosum; settings: resistance MLSK
Procedure: This is a standard international method for quantitatively assessing the antimicrobial activity of a compound in a solid medium. The test compound was prepared to 40× the highest concentration required (eg 10 mg/ml for a final concentration of […]) and a series of doubling dilutions were performed in a suitable solvent. A set amount of these antimicrobial stock solutions was then added to molten agar medium (ca 55° C.), mixed thoroughly, poured into sterile Petri dishes and allowed to cool/set. The culture medium was as described above.
A Multipoint™ Inoculator (AQS Manufacturing Ltd, UK) was used to inoculate the plates by spotting the inocula onto the surface of the agar, delivering approximately 1 to 2 μl per spot (yielding 10^5 CFU (colony forming units) per spot).
The plate(s) were then incubated under the conditions described above, following which they were examined visually for signs of bacterial growth. The MIC value was ascertained when there was a marked reduction in, or total loss of, growth on the test plate at the lowest concentration as compared to that of the growth on the control plate.
The assays were conducted in triplicate and included a positive control (culture medium, diluting solvent and inoculum).
The activity (MIC by agar dilution) of copper usnate was determined against a panel of different propionibacterium strains. […]

S. pyogenes ATCC 12344 [1] = experiment: Disc diffusion assay (DDA); type: cell-based, Streptococcus pyogenes; settings: 200 μg per disc; Mueller-Hinton agar pH 7.0; 48 hours at 37° C., 5% carbon dioxide
Excerpt: (a) staphylococci. The Staphylococcus aureus strain used was ATCC 29213. S. aureus and other staphylococci are common causes of a wide range of skin, skin structure and wound infections; S. aureus is also known to exacerbate eczema. The ATCC 29213 strain is known to be susceptible to beta-lactam antibiotics such as methicillin. The Staphylococcus epidermidis strain used was NCTC 11047. Staph. epidermidis forms part of the resident flora of skin and is an opportunistic pathogen which can cause biofilms to grow for instance on plastic surgical implants such as catheters. Unless otherwise stated, the staphylococci were cultured and maintained on Mueller-Hinton Medium (agar and broth) at pH 7.2; cultures were incubated aerobically at 37° C. for 19-20 hours, at pH 7 (±0.2). (b) C. striatum NCTC 764. Corynebacterium striatum is closely related to organisms (aerobic diphtheroids of the genus Corynebacterium) that cause body odour. It was cultured and maintained on Mueller-Hinton medium (agar and broth). All cultures were incubated aerobically at 37° C. for 72 hours, at pH 7 (±0.2). (c) streptococci. The strains tested were S. mutans ATCC 25175 and S. pyogenes ATCC 12344. […] The diameter of this zone of “inhibition” was measured using a ProtoCOL™ automated zone sizer (Synbiosis, Cambridge, UK). […]

S. pyogenes ATCC 12344 [2] = experiment: MIC assay; type: cell-based, Streptococcus pyogenes; settings: Mueller-Hinton broth pH 7.0

CC(=O)c1c([O-])c(C)c([O-])c2c1OC1=CC(=O)C(C(C)=O)C(=O)C12C.[Cu+2] (stereo not shown) [Copper usnate, copper (II) usnate]
MIC (P. granulosum; P. granulosum PRP-005, Erm X): 1.95 µg/mL | MIC (P. granulosum; P. granulosum PRP-019, Erm X): 1.95 µg/mL | DDA zone diameter (S. pyogenes ATCC 12344 [1]): 31.3 ± 0.6 mm | MIC (S. pyogenes ATCC 12344 [2]): 0.98 µg/mL
